“Also recorded” adds a separate entry of the source.
Key:
[1] = target: T1, human ENPP1 enzymatic domain (Homo sapiens, UniProt P22413); experiment: ENPP1 Enzymatic Inhibition Assay (2′3′-cGAMP substrate, AMP-Glo luminescence); format: biochemical; details: 1 nM ENPP1, 20 uM 2′3′-cGAMP, 30 minutes at 37° C.
T1 construct: recombinant protein containing the human ENPP1 enzymatic domain; purchased Viva Biotech
T1 sequence (P22413 191-591 limits assumed): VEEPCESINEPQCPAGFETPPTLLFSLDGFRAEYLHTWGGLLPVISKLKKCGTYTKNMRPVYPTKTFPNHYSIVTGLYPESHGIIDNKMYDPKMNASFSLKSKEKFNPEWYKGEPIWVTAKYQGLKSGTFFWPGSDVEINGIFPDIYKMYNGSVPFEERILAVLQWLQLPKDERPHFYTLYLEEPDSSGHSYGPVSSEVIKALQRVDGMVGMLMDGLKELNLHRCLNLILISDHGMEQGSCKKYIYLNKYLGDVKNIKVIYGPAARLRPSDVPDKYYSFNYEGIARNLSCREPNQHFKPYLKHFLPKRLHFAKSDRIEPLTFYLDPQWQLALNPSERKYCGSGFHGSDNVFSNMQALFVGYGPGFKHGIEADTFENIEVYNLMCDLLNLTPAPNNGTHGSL
Method in brief: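 Recombinant human ENPP1 enzymatic domain (1 nM) pre-incubated with inhibitor 15 min at 37° C in Tris pH 8.0, NaCl, CaCl2, ZnCl2, 1% DMSO, then reacted 30 min with 20 uM 2′3′-cGAMP. AMP measured by AMP-Glo luminescence; IC50 from sigmoidal fit over 10 uM to 0.056 nM, normalised to no-inhibitor and no-enzyme controls.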

MC38 tumor xenografts [2] = experiment: Treatment of mice bearing MC38 tumor xenografts (Study 1); format: in vivo, C57BL/6 mice
Procedure: Ten week old female C57BL/6 mice were implanted subcutaneously in the flank with 5×10^5 MC38 cells. Tumors were measured every 2-3 days using a caliper. Body weight was measured every 2-3 days. Dosing initiated on Day (when the average tumor volume reached 50 mm^3. Five animals were assigned to each treatment group. Animals were dosed orally by gavage with Compound 26 for 10 days and were monitored through Day 32 or until tumors reached 2.000 mm^3 in volume.
FIG. 1 provides a graph of mean tumor volumes for this set of mice bearing MC38 tumor xenografts. Mice were divided into three groups: (1) control group, who received no treatment (black circles, solid line); (2) mice who received Compound 26 dosed at 4 mg/kg PO QD (grey triangles, dashed lines); and (3) mice who received Compound 26 dosed at 60 mg/kg PO QD (grey squares, dotted line). In each treatment group, compound 26 was administered once a day for 10 consecutive days, at which time, treatment was ceased.

MC38 tumor xenografts [3] = experiment: Treatment of mice bearing MC38 tumor xenografts (Study 2): tumor volume, survival, body weight; format: in vivo, C57BL/6 mice
Procedure: (§1) In this study, 6-8 week old female C57BL/6 mice were implanted subcutaneously in the flank with 5×10^5 MC38 cells. Tumors were measured every 2-3 days using a caliper. Body weight was measured every 2-3 days. Dosing initiated on Day (when the average tumor volume reached 50 mm^3 with 15 animals assigned to each treatment group. Animals were dosed orally by gavage with Compound 26 (4 mg/kg PO QD) or Compound 56 (either 1 mg/kg PO QD or 12 mg/kg PO QD).
(§2) A subset of 5 animals from each group were collected on day 10 after the initiation of dosing. Tumors were harvested and lysed via sonication. Supernatants were collected, adjusted for total protein, and assayed using a Luminex cytokine and chemokine panel (Invitrogen) and an IFN-β ELISA. The remaining 10 animals in each group were dosed and monitored through Day 27 or until tumors reached 2 cm in size.
FIG. 2A provides a graph of mean tumor volumes for this set of mice bearing MC38 tumor xenografts. Mice were divided into four groups: (1) control group, who received no treatment (black circles, solid line); (2) mice who received Compound 26 dosed at 4 mg/kg PO QD (grey squares, dashed line); (3) mice who received Compound 56 dosed at 12 mg/kg PO QD (grey triangles, dotted line); and (4) mice who received Compound 56 dosed at 1 mg/kg PO QD (empty circles, dotted dashed line).

MC38 tumor xenografts [4] = experiment: Treatment of mice bearing MC38 tumor xenografts (Study 3); format: in vivo, C57BL/6 mice; details: for survival: day to which some mice survived (Kaplan-Meier, FIG. 5B): all untreated mice deceased by day 21
Procedure: as §1, with “when” for “on Day (when”, “7” for “15”, “once daily through Day 27” for “by gavage with Compound 26 (4 mg/kg PO QD)”, “until tumors reached 2 cm in size.” for “Compound 56 (either 1 mg/kg PO QD or 12 mg/kg PO QD).”
FIGS. 5A-5B provide data for a fourth set of mice bearing MC38 tumor xenografts. FIG. 5A provides a graph of median tumor volumes for this set of mice. Mice were divided into three groups: (1) control group, who received no treatment (circles); (2) mice who received Compound 26 dosed at 4 mg/kg PO QD (squares); and (3) mice who received Compound 56 dosed at 12 mg/kg PO QD (triangles). […] For example, at day 20, tumor volumes for the untreated mice were between 2000 and 3000 mm^3, while for treated mice had tumor volumes between 1000 and 2000 mm^3.

MC38 tumors = experiment: Intratumoral cytokine levels at day 10 in MC38 tumors (Study 2; Luminex cytokine and chemokine panel, IFN-β ELISA); format: in vivo, C57BL/6 mice; details: 12 mg/kg QD
Procedure: as §1, §2
Intratumoral concentrations for each of these inflammatory cytokines are provided in picogram of cytokine per gram of tumor tissue. FIGS. 4B-F each provide data for each of the following: (1) untreated control group (circles); (2) mice treated with 4 mg/kg QD Compound 26 (triangles); (3) mice treated with 12 mg/kg QD […]; and (4) mice treated with […].

Q: How did the IC50 [1] turn out when `COc1ccc2c(Oc3ccc([S@@](=N)(=O)NC[C@@H](C)O)cc3)ccnc2c1` [Compound 26, (S)-N-((R)-2-hydroxypropyl)-4-((7-methoxyquinolin-4-yl)oxy)benzenesulfonimidamide] was run?
A: < 10 nM

Q: And the “mean tumor volume compared to the control group (FIG. 1)” value (MC38 tumor xenografts [2]; 4 mg/kg PO QD for 10 days)?
A: lower

Q: What about the “mean tumor volume compared to the control group (FIG. 1)” value (MC38 tumor xenografts [2]; 60 mg/kg PO QD for 10 days) of the same compound?
A: lower

Q: And the “mean tumor volume compared to the untreated group (FIG. 2A)” value (MC38 tumor xenografts [3]; 4 mg/kg PO QD)?
A: smaller

Q: And the “survival: day to which some mice survived (Kaplan-Meier, FIG. 3A)” value (MC38 tumor xenografts [3]; 4 mg/kg PO QD, all untreated mice deceased by day 22)?
A: 24 days

Q: And the “median tumor volumes compared to the untreated group (FIG. 5A)” value (MC38 tumor xenografts [4]; 4 mg/kg PO QD)?
A: significantly lower

Q: What about the “survival: day to which some mice survived (Kaplan-Meier, FIG. 5B)” value (MC38 tumor xenografts [4]; 4 mg/kg PO QD) of the same compound?
A: 24 days

Q: How did the IC50 [1] turn out when `COc1ccc2c(Nc3ccc([S@@](=N)(=O)NC[C@@H](C)O)cc3)ccnc2c1` [Compound 56, (S)-N-((R)-2-hydroxypropyl)-4-((7-methoxyquinolin-4-yl)amino)benzenesulfonimidamide] was run?
A: < 10 nM

Q: And the “mean tumor volume compared to the untreated group (FIG. 2A)” value (MC38 tumor xenografts [3]; 1 mg/kg PO QD)?
A: smaller

Q: What about the “survival: day to which at least one mouse survived (Kaplan-Meier, FIG. 3A)” value (MC38 tumor xenografts [3]; 1 mg/kg PO QD, all untreated mice deceased by day 22) of the same compound?
A: > 27 days

Q: And the “mean tumor volume compared to the untreated group (FIG. 2A)” value (MC38 tumor xenografts [3]; 12 mg/kg PO QD)?
A: smaller; also recorded: greatest reduction in tumor volume

Q: And the “survival: day to which at least one mouse survived (Kaplan-Meier, FIG. 3A)” value (MC38 tumor xenografts [3]; 12 mg/kg PO QD, all untreated mice deceased by day 22)?
A: > 27 days

Q: What about the “median intratumoral concentration of eotaxin (FIG. 4F)” value (MC38 tumors) of the same compound?
A: ~15000 pg eotaxin/g of tumor

Q: What about the “median intratumoral concentration of interferon beta (IFN beta) (FIG. 4B)” value (MC38 tumors) of the same compound?
A: > 400 pg IFNbeta/g of tumor

Q: And the “median intratumoral concentration of interferon γ-induced protein 10 kDa (IP-10) (FIG. 4C)” value (MC38 tumors)?
A: 3000-4000 pg IP-10/g of tumor

Q: What about the “median intratumoral concentration of macrophage inflammatory protein-1-beta (MIP-1beta) (FIG. 4D)” value (MC38 tumors) of the same compound?
A: ~9000 pg MIP-1 beta/g of tumor

Q: And the “median intratumoral concentration of monocyte-chemotactic protein 3 (MCP-3) (FIG. 4E)” value (MC38 tumors)?
A: 20000-30000 pg MCP-3/g of tumor

Q: And the “median tumor volumes compared to the untreated group (FIG. 5A)” value (MC38 tumor xenografts [4]; 12 mg/kg PO QD)?
A: significantly lower

Q: What about the “survival: day to which some mice survived (Kaplan-Meier, FIG. 5B)” value (MC38 tumor xenografts [4]; 12 mg/kg PO QD) of the same compound?
A: ≥ 27 days
